From US20060104981A1, “Prophylactic/therapeutic agent for cancer” (priority 2002, published 2006)

What was measured:
Format in all cases: cell-based
[1] = tested on: lung cancer cell line NCI-H1299; assay: Apoptosis (caspase 3/7 activity, Caspase Glo-3/7 assay) after siRNA transfection; details: day 3 after transfection
Procedure: (§1) RNA Duplexes for the base sequence represented by SEQ ID NO: 3 (hereinafter briefly referred to as siRNA) were designed (SEQ ID NO: 11 and SEQ ID NO: 12) and provided for the transfection experiment using the synthetic duplexes (Qiagen, Inc.). For control siRNAs, commercially available Control (non-silencing) siRNAs (SEQ ID NO: 13 and SEQ ID NO: 14) (manufactured by Qiagen, Inc.) were used.
(§2) Meanwhile, 1×10^3 cells were seeded on a 96-well plate (manufactured by Falcon Co., Ltd.) to assess the effect on apoptosis. Forty-eight hours later, siRNA or control siRNA to EZH2 was transfected using Lipofectamine 2000 (manufactured by Invitrogen Corp.) as described above. On day 3 after the siRNA transfection, the caspase 3/7 activity as an indicator of apoptosis was compared by the Caspase Glo-3/7 assay (manufactured by Promega Corp.).

colon cell line HCT116 = assay: as above; details: day 3 after transfection
Procedure: as §1, §2

[2] = tested on: EZH2 (RNA) in lung cancer cell line NCI-H1299; assay: EZH2 (RNA) expression by quantitative PCR after siRNA transfection; details: 36 hours after transfection, siRNA 45 nM
Description: as §1
(§3) Colon cell line HCT116 (purchased from ATCC) and lung cancer cell line NCI-H1299 (purchased from ATCC) were used as the test cells used for the following test. Forty-eight hours before transfection of siRNAs, 5×10^5 cells were plated on a 24-well plate (manufactured by Falcon Co., Ltd.). In transfection of these siRNAs, Lipofectamine 2000 (manufactured by Invitrogen Corp.) was used in accordance with its protocol. The final concentration of siRNAs was set at 45 nM. RNA was extracted 36 hours after the transfection, following the protocol of RNeasy Mini Kit (manufactured by Qiagen, Inc.) and cDNA was prepared using TaqMan Reverse Transcription Reagents (manufactured by Applied Biosystems, Inc.). Quantitative PCR was performed on ABI PRISM™ 7900HT Sequence Detector (manufactured by Applied Biosystems, Inc.), using two primers (SEQ ID NO: 6 and SEQ ID NO: 7) and a probe (SEQ ID NO: 8), as in EXAMPLE 4.

[3] = tested on: EZH2 (RNA) in colon cell line HCT116; assay: as above; details: 36 hours after transfection, siRNA 45 nM
Description: as §1, §3

For “siRNA to EZH2: RNA duplexes for the base sequence of SEQ ID NO: 3; antisense strand SEQ ID NO: 11, sense strand SEQ ID NO: 12 (antisense AAGUUGAACAGAAAGCUGCTT; sense GCAGCUUUCUGUUCAACUUTT; RNA duplexes, chemistry of the tt overhangs not given here)”, which “apoptosis as compared to the control (100%)” value [1] is on record?
The value was 143%.

And the “apoptosis as compared to the control (100%)” value (colon cell line HCT116)?
The value was 185%.

And the “expression of EZH2 (RNA) as compared to control siRNA (100%)” value [2]?
The value was 13%.

What about the “expression of EZH2 (RNA) as compared to control siRNA (100%)” value [3] of the same substance?
The value was 50%.
